Ends that are not written are not given here.
Legend:
[1] = Stability of non-covalent peptide coating on apatite ceramics (FITC fluorescence); type: physicochemical; details: peptide bound to FITC, coated on apatite ceramics; 3, 7 or 10 days
Description: (§1) Non-covalent modifications of the materials were performed in Air Atmosphere at room temperature. The non-covalent coating strategy consisted in using a mixture of inducing peptide (SEQ ID NO: 9; concentration of 1×10^−3M) with an apatite ceramics implant or a mixture of inducing peptide (SEQ ID NO: 10; concentration of 1×10^−3M) with a type-I collagen sponge. The non-covalently coated conventional materials were characterized by using fluorescent peptides (Here SEQ ID NO: 9 and 10 covalently bound to fluorescein isothiocyanate (FITC), FIG. 3). The results shown here in FIG. 3 were obtained from experiments performed with apatite ceramics and a type-I collagen sponge. […] Indeed, after 3, 7 or 10 days, the osteogenic peptides were still coated to the ceramics or the type-I collagen (FIG. 4). The biomaterial surface was characterized by X-ray photoelectron spectroscopy (Table 1). The X-ray photoelectron spectroscopy was performed as described in the Methods section.

[2] = Stability of non-covalent peptide coating on type-I collagen sponge (FITC fluorescence); type: physicochemical; details: peptide bound to FITC, mixed with type-I collagen sponge; 3, 7 or 10 days
Description: as §1

osteoblast progenitors = test: Osteogenic differentiation of osteoblast progenitors on peptide-coated materials (Osteopontin staining, Runx2 Q-PCR); type: cell-based
Description: (§2) The cells were first fixed for 20 min with 4% paraformaldehyde/PBS at 4° C. After fixation, the cells were permeabilized in PBS containing 1% Triton X-100 for 15 min. Runx2, Osterix, Stro-1, Vinculin, Phalloidin, Osteopontin, Sox2, Sox9 antibodies were visualized by treating the cells with 1% (v/v) specific monoclonal antibodies for 1 hour at 37° C. Then the samples were incubated with Alexa Fluor® 568 or 647 (F(ab′)2 fragment of IgG(H+L)) during 30 min at room temperature. The cell nuclei were counterstained in 20 ng/mL DAPI for 10 min at room temperature.
(§3) Total RNA was extracted by using the RNeasy total RNA kit (Qiagen®) according to the manufacturer's instructions. Purified total RNA was used as a template in order to make cDNA by a reverse transcription reaction (Gibco BrI®) with random primers (Invitrogen®). The cDNA was then used as a template for a real-time PCR amplification in the presence of SYBR green reagents (Bio-Rad®) by using a thermocycler (iCycler, Biorad®). Data were analyzed with the iCycler IQ™® software and compared by the ΔΔCt method. Briefly, the mean Ct value of the target gene was normalized to its averaged Ct values of the housekeeping gene (HPRT) to give a ΔCt value, which was then normalized to a control sample to obtain a ΔΔCt value. The results were obtained from two series of experiments performed in a triplicate.
The effect of these GFR-binding compounds as defined herein (SEQ ID NO: 19 and 20) on the differentiation of osteoblast progenitors was evaluated. These osteoblast progenitors were seeded onto the apatite ceramics or on type-I collagen sponge that were both coated with osteogenic peptides. […] This was seen from Osteopentin immunofluorescence staining after cell fixation as described in the Methods section (FIG. 7).
An increase in the Runx2 gene expression after 24 hours of culture (FIG. 8a) was observed by using Quantitative Real Time Polymerase Chain Reaction as described in the Methods section.

hMSCs [3] = test: Alkaline phosphatase activity of hMSCs on peptide-coupled type-I collagen sponge; type: cell-based, human; details: 1 week of culture on type-I collagen sponge
Text: We observed an increase in the ALP activity after 1 week of culture on type-I collagen sponge coupled with GFR-binding compounds as defined herein (SEQ ID NO: 19) (FIG. 8b).

hMSCs [4] = test: Chondrocyte differentiation of hMSCs (Sox9, Aggrecan); type: cell-based, human; details: 96 hours of culture
Description: as §2
Total RNA was extracted by using the RNeasy Mini Kit (Qiagen) and […] RNA was used for cDNA synthesis with AMV kit (Invitrogen®) according to the manufacturer' instructions. Semi-quantitative reverse transcriptase-polymerase chain reaction (RT-PCR) was performed with Taq DNA Polymerase (Invitrogen®) in a thermocycler (Bio-Rad®). The cDNA input was normalized to […] (HPRT). The PCR products were analyzed on 2% agarose gels. For the Aggrecan gene, the PCR bands were densitometrically quantified by using the BioCapt software (Vilber). Values were normalized to HPRT, and results were reported as relative gene expression.
hMSCs were cultured on with and without GFR-binding compounds as defined herein (SEQ ID NO: 23 and 24). […]

[5] = test system: Human umbilical-vein endothelial cells; test: Endothelialization, CD31 adherens junctions; type: cell-based; details: 36 hours of culture
Description: Human umbilical-vein endothelial cells were cultured with and without GFR-binding compounds as defined herein (SEQ ID NO: 26). An increase in the area of the adherent junctions (CD31) was observed after 36 hours of culture with GFR-binding compounds as defined herein (FIG. 10).

[6] = test system: Human umbilical-vein endothelial cells; test: Angiogenesis, tube-like structure formation; type: cell-based; details: 18 hours of culture
Description: Human umbilical-vein endothelial cells were cultured with and without GFR-binding compounds as defined herein (SEQ ID NO: 27).

Human epithelial cells = test: Scratch test, collective cell migration; type: cell-based; details: 18 hours of culture
Description: Human epithelial cells were cultured with or without GFR-binding compounds as defined herein (SEQ ID NO: 28). A usual scratch test was applied (Nat Protoc 2: 329-333) on a monolayer of these epithelial cells in culture (FIG. 12a). An increase in the cell migration velocity for cells cultured with peptides was observed after 18 hours of culture. The cells migrated collectively and the communication between cells was maintained (FIG. 12b). In fact, the injury has been closed rapidly for the cells cultured with GFR-binding compounds as defined herein.

Neurons = test: Neuron growth (dendrite growth, GAP43 Q-PCR); type: cell-based
Description: as §3
Neurons were cultured with and without GFR-binding compounds as defined herein (SEQ ID NO: 38). […] To further confirm this, the expression of the Growth Associated Protein 43 (GAP43) gene was verified for neuron cells cultured with neurogenic peptides (SEQ ID NO: 38).

SEQ ID NO: 9: inducing peptide, cyclic GFR-binding compound of the sequence listing; mixed with apatite ceramics; sequence not printed (WWFWGGGSAISTLYLIGKTPGGGGGG; also: cyclic, ring type and places not given here)
release of peptides over time [1]: no significant release of peptides was observed over time

SEQ ID NO: 10: inducing peptide, cyclic GFR-binding compound of the sequence listing; mixed with type-I collagen sponge; sequence not printed (GTPGPGGGSAISTLYLIGKTPGGGGGG; also: cyclic, closure not given here)
release of peptides over time [2]: no significant release of peptides was observed over time

SEQ ID NO: 19: osteogenic cyclic GFR-binding compound of the sequence listing; sequence not printed (WWFWGGGSAISTLYLDEYDKGGGGGG; also: cyclic, closure not given here)
differentiation into mature osteoblasts (osteoblast progenitors; 48 hours on coated apatite ceramics or type-I collagen sponge): differentiated into mature osteoblasts
production of extracellular matrix proteins such as Osteopontin (OPN) (osteoblast progenitors; versus native type-I collagen sponge or native apatite ceramics): produced extensive amounts of extracellular matrix proteins such as Osteopontin (OPN)
ALP activity (hMSCs [3]): increase

SEQ ID NO: 23: cyclic GFR-binding compound inducing cartilage regeneration; sequence not printed (VGRKPELEPLPIVYYVGRKPGGGGG; also: cyclic, ring type and places not given here)
expression of the Sox9 protein (hMSCs [4]): expression of the Sox9 protein was observed

SEQ ID NO: 24: cyclic GFR-binding compound inducing cartilage regeneration; sequence not printed (EPLPIVYYVGRTPKVGGGGGG; also: cyclic, ring type and places not given here)
expression of the Sox9 protein (hMSCs [4]): expression of the Sox9 protein was observed

SEQ ID NO: 26: cyclic GFR-binding compound inducing endothelialization; sequence not printed (RSVKVAKVRIKPHQGQHGGGGGG; also: cyclic, ring type and places not given here)
area of the adherent junctions (CD31) [5]: increase

SEQ ID NO: 27: vascular peptide, cyclic GFR-binding compound inducing angiogenesis; sequence not printed (SNITMQIMRIKPHQGGGGGG; also: cyclic, ring type and places not given here)
formation of tube-like structures [6]: formation of tube-like structures was observed

SEQ ID NO: 28: cyclic GFR-binding compound for wound healing; sequence not printed (EYVRKRPVQVRKIEYVRKGGGGGG; also: cyclic, ring type and places not given here)
cell migration velocity (Human epithelial cells): increase

SEQ ID NO: 38: neurogenic peptide, cyclic GFR-binding compound; sequence not printed (SPISILYIDAANNGGGGGG; also: cyclic, ring type and places not given here)
establishment of cell-cell contacts via dendrite growth (Neurons; 6 hours of culture): rapid establishment of cell-cell contacts via dendrite growth
expression of the Growth Associated Protein 43 (GAP43) gene (Neurons; 48 hours of culture, Q-PCR): high level of expression

Source: patent US20190225651A1, “COMPOUNDS FOR INDUCING TISSUE FORMATION AND USES THEREOF” (HISTIDE AG, priority 2015, published 2019)
